Among the test systems are MALME-3M melanoma; HL-60(TB) leukemia; U251 CNS; LOX IMVI melanoma; NCI-H460 lung; RXF 393 renal; HCC-2998 colon; OVCAR-8 ovarian; OVCAR-4 ovarian; SF-295 CNS.
Assay in all cases: NCI anticancer screen, dose series, 48 h

Here are results for 13 compounds from PubChem BioAssay (NCI).

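96-well plates; 48 h exposure; 5 concentrations. Endpoints by linear interpolation between flanking doses. Not reached: highest tested concentration assigned. GI50 = concentration required for 50% inhibition of growth. TGI denotes the concentration required for complete inhibition of growth.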 Where only a bound is given, the exact number is not on record here.

`Cc1ccc(S(=O)(=O)NC(=O)NC23CC4CC(CC(F)(C4)C2)C3)cc1`: the TGI with MALME-3M melanoma, with HL-60(TB) leukemia, in the assay with U251 CNS, in the assay on LOX IMVI melanoma, with NCI-H460 lung and in the assay with RXF 393 renal was greater than 100 µM each time. Also, the TGI with HCC-2998 colon and in the assay with OVCAR-8 ovarian was greater than 100 µM throughout.

Take `O=C(N=C1SCCN1C(=O)C(C(F)(F)F)C(F)(F)F)C(C(F)(F)F)C(F)(F)F`: the TGI in the assay on MALME-3M melanoma, in the assay on HL-60(TB) leukemia, in the assay with OVCAR-4 ovarian, in the assay on U251 CNS, in the assay with SF-295 CNS and in the assay on LOX IMVI melanoma was greater than 100 µM each time. Besides, the TGI in the assay on NCI-H460 lung, with RXF 393 renal, in the assay with HCC-2998 colon and in the assay on OVCAR-8 ovarian was greater than 100 µM throughout.

As for `CC12CCC(C(=O)O1)C(C)(C)O2` (configuration not stated), the TGI with MALME-3M melanoma, in the assay with HL-60(TB) leukemia, in the assay on OVCAR-4 ovarian, in the assay on U251 CNS, in the assay with SF-295 CNS and with LOX IMVI melanoma was greater than 100 µM throughout. Besides, the TGI with NCI-H460 lung, in the assay with RXF 393 renal, with HCC-2998 colon and with OVCAR-8 ovarian was greater than 100 µM throughout.

In the case of `CC1(C)N=C(C(N)=O)c2ncn(CCO)c2N1`, the TGI with MALME-3M melanoma, in the assay on HL-60(TB) leukemia, in the assay with OVCAR-4 ovarian, in the assay on U251 CNS, in the assay on SF-295 CNS and in the assay with LOX IMVI melanoma was greater than 100 µM in each case. In addition, the TGI in the assay on NCI-H460 lung, with RXF 393 renal, in the assay with HCC-2998 colon and with OVCAR-8 ovarian was greater than 100 µM each time.

On to `CCOC(=O)c1c(Br)c(-c2ccc(Br)cc2)c(Br)n1C`, for which the TGI with MALME-3M melanoma is 62.7 µM; in the assay with HL-60(TB) leukemia it was 16.6 µM; in the assay on OVCAR-4 ovarian, greater than 100 µM; with U251 CNS, 55 µM; in the assay with SF-295 CNS it was 45.6 µM; in the assay on LOX IMVI melanoma, 30.4 µM. For the same compound, the TGI was greater than 100 µM in the assay on NCI-H460 lung, 34.2 µM in the assay on RXF 393 renal, 42.1 µM in the assay with HCC-2998 colon and 87.1 µM in the assay on OVCAR-8 ovarian. In addition, the GI50 in the assay on HL-60(TB) leukemia was 5.24 µM; in the assay with LOX IMVI melanoma, 14.3 µM.

For the compound `O=C1C(F)=CC(COC(c2ccccc2)(c2ccccc2)c2ccccc2)OC1n1cc(F)c(=O)[nH]c1=O` (configuration not stated), the TGI with MALME-3M melanoma stood at 31.4 µM; in the assay with HL-60(TB) leukemia, 10.2 µM; in the assay with OVCAR-4 ovarian, 14.4 µM; in the assay on U251 CNS, 4.71 µM; in the assay on SF-295 CNS, 5.06 µM; in the assay on LOX IMVI melanoma it was 3.54 µM. Further, the TGI in the assay with NCI-H460 lung was 7.68 µM; with RXF 393 renal, 4.11 µM; with HCC-2998 colon, 14.1 µM; in the assay with OVCAR-8 ovarian, 7 µM.

Turning to `CC(C)=CC(=O)O[C@H]1C(=O)O[C@@H]2C[C@H]3[C@H](C)C(=O)C(O[C@@H]4O[C@H](CO)[C@@H](O)[C@H](O)[C@H]4O)=C[C@]3(C)[C@H]3[C@@H](O)[C@H](O)[C@]4(C(=O)O)OC[C@]32[C@@H]14`, the GI50 with MALME-3M melanoma was 24.2 µM; in the assay on HL-60(TB) leukemia, 35.8 µM; with OVCAR-4 ovarian, 25.2 µM; in the assay with U251 CNS, 40 µM; with LOX IMVI melanoma, 40.3 µM; in the assay on NCI-H460 lung, 32 µM. For the same compound, the values for the GI50 in the assay on RXF 393 renal, in the assay on HCC-2998 colon and in the assay on OVCAR-8 ovarian were 25.4 µM, 24.7 µM and greater than 100 µM, respectively. Moreover, the TGI was 61.1 µM in the assay on MALME-3M melanoma; greater than 100 µM in the assay with HL-60(TB) leukemia; greater than 100 µM in the assay on OVCAR-4 ovarian; greater than 100 µM in the assay on U251 CNS; greater than 100 µM with LOX IMVI melanoma; greater than 100 µM with NCI-H460 lung. Further, the TGI with RXF 393 renal is 73.1 µM; with HCC-2998 colon it was 57.5 µM; in the assay with OVCAR-8 ovarian, greater than 100 µM.

On to `Cn1c(=O)c2c(nc3n(Cc4ccccc4)c(=O)c(NCCBr)cn23)n(C)c1=O`, for which the TGI in the assay on HL-60(TB) leukemia is greater than 100 µM; with OVCAR-4 ovarian, 49.2 µM; with U251 CNS, greater than 100 µM; in the assay with SF-295 CNS it was 43.1 µM; in the assay with LOX IMVI melanoma, greater than 100 µM; with NCI-H460 lung it was greater than 100 µM. In addition, the TGI amounted to 35 µM with RXF 393 renal, 52 µM in the assay with HCC-2998 colon and 33.8 µM with OVCAR-8 ovarian.

In the case of `c1ccc(-c2sc(-c3cccs3)cc2Cc2cccs2)cc1`, the TGI with MALME-3M melanoma, with HL-60(TB) leukemia, with OVCAR-4 ovarian, in the assay on SF-295 CNS, with LOX IMVI melanoma and in the assay on NCI-H460 lung was greater than 10 µM in each case. Also, the TGI with RXF 393 renal, in the assay with HCC-2998 colon and with OVCAR-8 ovarian was greater than 10 µM throughout.

For the compound `COc1ccc2cc1Oc1ccc(cc1)C(Sc1ccccc1)CCOC(=O)CC2` (configuration not stated), the TGI in the assay with MALME-3M melanoma, in the assay on HL-60(TB) leukemia, with OVCAR-4 ovarian, in the assay on U251 CNS, with SF-295 CNS and in the assay with LOX IMVI melanoma was greater than 100 µM in each case. Moreover, the TGI in the assay on RXF 393 renal, in the assay with HCC-2998 colon and in the assay with OVCAR-8 ovarian was greater than 100 µM throughout.

For `CCOC(=O)c1cc(C(=O)c2ccccc2)n2nc(-c3ccc(Cl)cc3)ccc12`, the TGI in the assay with MALME-3M melanoma is 46.3 µM; with HL-60(TB) leukemia, greater than 100 µM; with OVCAR-4 ovarian, 37.2 µM; in the assay on U251 CNS, 66.3 µM; in the assay on SF-295 CNS, 54.2 µM; with LOX IMVI melanoma it was greater than 100 µM. Moreover, the TGI was found to be 50.9 µM in the assay with NCI-H460 lung, 32.7 µM in the assay on RXF 393 renal and 51 µM with HCC-2998 colon.

`COc1ccccc1-c1cc(=O)c2ccccc2[nH]1`: the TGI with MALME-3M melanoma, in the assay on HL-60(TB) leukemia, with U251 CNS, in the assay on SF-295 CNS, with LOX IMVI melanoma and with NCI-H460 lung was greater than 100 µM throughout. Moreover, the TGI in the assay on RXF 393 renal, with HCC-2998 colon and in the assay with OVCAR-8 ovarian was greater than 100 µM in each case.

Regarding `O=C(NCCC(F)(F)C(F)(F)C(F)(F)C(F)(F)F)NC1OC(CO)C(O)C(O)C1O` (configuration not stated), the TGI in the assay with MALME-3M melanoma, in the assay on HL-60(TB) leukemia, in the assay with OVCAR-4 ovarian, in the assay on U251 CNS, in the assay on SF-295 CNS and in the assay on LOX IMVI melanoma was greater than 100 µM in each case. The TGI with NCI-H460 lung, in the assay on RXF 393 renal and with HCC-2998 colon was greater than 100 µM each time.
